Laboratory results from publication PMC10412597, “Small molecule branched-chain ketoacid dehydrogenase kinase (BDK) inhibitors with opposing effects on BDK protein levels” (Nature Communications, 2023).

Tests used:
Set-up in all cases: Invitrogen kinase panel, per cent inhibition of kinase activity
GSK3B = GSK3B (Homo sapiens, UniProt P49841); details: 10 µM, inhibitor
Method: (§1) To discover a potent and selective BDK inhibitor, a subset of the Pfizer compound collection was screened. […] Off target activity was assessed in both CEREP and kinase panels (Supplementary Tables 2, 3).

AKT1 = AKT1 (Homo sapiens, UniProt P31749); details: 10 µM, inhibitor
Sequence of AKT1 (P31749 whole entry): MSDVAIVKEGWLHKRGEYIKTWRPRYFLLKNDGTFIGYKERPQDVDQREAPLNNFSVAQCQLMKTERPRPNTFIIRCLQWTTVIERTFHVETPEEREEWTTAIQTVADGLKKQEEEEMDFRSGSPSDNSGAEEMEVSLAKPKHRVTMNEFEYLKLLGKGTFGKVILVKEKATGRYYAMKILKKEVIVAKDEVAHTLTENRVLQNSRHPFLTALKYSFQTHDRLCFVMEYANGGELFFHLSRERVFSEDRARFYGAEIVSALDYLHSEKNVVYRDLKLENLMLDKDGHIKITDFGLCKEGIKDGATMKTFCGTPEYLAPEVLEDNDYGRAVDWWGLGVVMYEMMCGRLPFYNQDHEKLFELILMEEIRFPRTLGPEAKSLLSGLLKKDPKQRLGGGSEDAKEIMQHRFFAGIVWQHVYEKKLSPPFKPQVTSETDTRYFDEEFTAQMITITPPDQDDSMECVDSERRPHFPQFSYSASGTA
Method: as §1

MAPK1 = MAPK1 (Homo sapiens, UniProt P28482); details: 10 µM, inhibitor
Sequence of MAPK1 (P28482 whole entry): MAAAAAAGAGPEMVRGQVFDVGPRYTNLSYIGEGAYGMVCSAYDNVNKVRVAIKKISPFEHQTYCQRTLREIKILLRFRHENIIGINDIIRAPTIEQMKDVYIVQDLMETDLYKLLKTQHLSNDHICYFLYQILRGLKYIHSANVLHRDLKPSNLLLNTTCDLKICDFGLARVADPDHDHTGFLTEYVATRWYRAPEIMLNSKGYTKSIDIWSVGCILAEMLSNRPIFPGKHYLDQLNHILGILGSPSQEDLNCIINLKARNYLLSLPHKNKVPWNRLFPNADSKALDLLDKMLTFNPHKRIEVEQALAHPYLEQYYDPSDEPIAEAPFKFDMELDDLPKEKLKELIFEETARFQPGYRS
Method: as §1

NTRK1 = NTRK1 (Homo sapiens, UniProt P04629); details: 10 µM, inhibitor
Sequence of NTRK1 (P04629 whole entry): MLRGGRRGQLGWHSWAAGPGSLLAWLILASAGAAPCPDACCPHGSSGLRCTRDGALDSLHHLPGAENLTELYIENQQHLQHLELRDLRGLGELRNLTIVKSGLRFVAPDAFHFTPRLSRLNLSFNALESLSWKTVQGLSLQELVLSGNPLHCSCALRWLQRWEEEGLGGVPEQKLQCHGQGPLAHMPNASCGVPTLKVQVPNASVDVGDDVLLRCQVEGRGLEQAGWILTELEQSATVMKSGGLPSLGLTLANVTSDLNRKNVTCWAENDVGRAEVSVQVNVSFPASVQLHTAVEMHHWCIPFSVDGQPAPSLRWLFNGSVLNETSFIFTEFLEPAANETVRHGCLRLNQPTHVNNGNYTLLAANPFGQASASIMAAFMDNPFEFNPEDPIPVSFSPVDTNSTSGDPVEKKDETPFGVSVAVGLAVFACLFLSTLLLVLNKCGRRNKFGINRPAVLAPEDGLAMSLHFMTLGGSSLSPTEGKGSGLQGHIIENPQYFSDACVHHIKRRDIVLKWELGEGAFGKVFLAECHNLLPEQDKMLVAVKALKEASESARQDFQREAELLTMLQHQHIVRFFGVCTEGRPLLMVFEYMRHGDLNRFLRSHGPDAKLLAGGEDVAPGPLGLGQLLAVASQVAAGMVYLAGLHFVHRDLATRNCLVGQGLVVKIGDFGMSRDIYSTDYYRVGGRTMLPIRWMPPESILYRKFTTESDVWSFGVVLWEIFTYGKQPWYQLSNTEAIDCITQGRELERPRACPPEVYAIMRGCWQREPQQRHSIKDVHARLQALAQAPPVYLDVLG
Method: as §1

PI4KA = PI4KA (Homo sapiens, UniProt P42356); details: inhibitor
Method: as §1

AKT2 = AKT2 (Homo sapiens, UniProt P31751); details: 10 µM, inhibitor
Method: as §1

PIM2 = PIM2 (Homo sapiens, UniProt Q9P1W9); details: 10 µM, inhibitor
Sequence of PIM2 (Q9P1W9 whole entry): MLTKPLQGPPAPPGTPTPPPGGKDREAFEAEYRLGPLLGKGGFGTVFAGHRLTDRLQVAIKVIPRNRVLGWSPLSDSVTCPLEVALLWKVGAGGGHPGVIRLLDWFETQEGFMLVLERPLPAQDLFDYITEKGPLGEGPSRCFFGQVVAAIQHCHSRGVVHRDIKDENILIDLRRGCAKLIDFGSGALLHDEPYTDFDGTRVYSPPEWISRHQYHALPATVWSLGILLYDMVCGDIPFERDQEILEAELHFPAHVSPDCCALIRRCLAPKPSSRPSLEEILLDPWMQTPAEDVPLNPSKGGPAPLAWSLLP
Method: as §1

MAPK14 = MAPK14 (Homo sapiens, UniProt Q16539); details: 10 µM, inhibitor
Sequence of MAPK14 (Q16539 whole entry): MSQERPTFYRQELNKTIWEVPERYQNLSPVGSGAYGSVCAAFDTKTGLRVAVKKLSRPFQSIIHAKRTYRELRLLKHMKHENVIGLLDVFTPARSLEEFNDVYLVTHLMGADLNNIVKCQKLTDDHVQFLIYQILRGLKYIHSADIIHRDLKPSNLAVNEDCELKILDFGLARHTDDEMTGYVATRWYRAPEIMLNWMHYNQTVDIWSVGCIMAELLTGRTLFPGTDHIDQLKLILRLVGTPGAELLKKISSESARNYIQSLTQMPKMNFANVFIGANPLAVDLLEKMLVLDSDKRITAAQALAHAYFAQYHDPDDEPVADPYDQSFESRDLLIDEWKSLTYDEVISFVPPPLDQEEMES
Method: as §1

FGFR1 = FGFR1 (Homo sapiens, UniProt P11362); details: 10 µM, inhibitor
Sequence of FGFR1 (P11362 whole entry): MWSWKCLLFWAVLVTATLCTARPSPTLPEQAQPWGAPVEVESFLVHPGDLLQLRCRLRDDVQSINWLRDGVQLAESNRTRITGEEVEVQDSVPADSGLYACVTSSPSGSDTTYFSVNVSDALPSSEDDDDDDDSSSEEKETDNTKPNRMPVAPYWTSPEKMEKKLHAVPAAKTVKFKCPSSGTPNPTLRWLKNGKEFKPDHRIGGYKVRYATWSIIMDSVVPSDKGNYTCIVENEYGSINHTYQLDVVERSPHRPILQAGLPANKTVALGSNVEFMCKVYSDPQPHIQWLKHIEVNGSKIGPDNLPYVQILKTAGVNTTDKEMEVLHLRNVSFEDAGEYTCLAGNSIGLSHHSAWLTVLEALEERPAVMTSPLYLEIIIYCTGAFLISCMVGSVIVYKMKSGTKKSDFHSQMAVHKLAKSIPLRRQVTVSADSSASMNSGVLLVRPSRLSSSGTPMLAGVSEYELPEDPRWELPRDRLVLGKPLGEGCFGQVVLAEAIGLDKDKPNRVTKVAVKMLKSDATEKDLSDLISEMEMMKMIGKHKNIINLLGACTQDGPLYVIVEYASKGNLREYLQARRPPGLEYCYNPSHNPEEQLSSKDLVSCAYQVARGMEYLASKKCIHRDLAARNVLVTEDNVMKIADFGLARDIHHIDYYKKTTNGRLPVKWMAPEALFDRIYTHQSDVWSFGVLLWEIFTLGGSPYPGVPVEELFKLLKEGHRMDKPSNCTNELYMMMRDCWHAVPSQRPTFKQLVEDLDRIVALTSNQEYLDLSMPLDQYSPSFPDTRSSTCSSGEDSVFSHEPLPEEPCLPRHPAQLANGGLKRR
Method: as §1

Rsk1 = target: T1, Rsk1 (Homo sapiens, UniProt Q15418); details: 10 µM, inhibitor
T1 construct: gene RPS6KA1
Method: as §1

INSR = INSR (Homo sapiens, UniProt P06213); details: 10 µM, inhibitor
Sequence of INSR (P06213 whole entry): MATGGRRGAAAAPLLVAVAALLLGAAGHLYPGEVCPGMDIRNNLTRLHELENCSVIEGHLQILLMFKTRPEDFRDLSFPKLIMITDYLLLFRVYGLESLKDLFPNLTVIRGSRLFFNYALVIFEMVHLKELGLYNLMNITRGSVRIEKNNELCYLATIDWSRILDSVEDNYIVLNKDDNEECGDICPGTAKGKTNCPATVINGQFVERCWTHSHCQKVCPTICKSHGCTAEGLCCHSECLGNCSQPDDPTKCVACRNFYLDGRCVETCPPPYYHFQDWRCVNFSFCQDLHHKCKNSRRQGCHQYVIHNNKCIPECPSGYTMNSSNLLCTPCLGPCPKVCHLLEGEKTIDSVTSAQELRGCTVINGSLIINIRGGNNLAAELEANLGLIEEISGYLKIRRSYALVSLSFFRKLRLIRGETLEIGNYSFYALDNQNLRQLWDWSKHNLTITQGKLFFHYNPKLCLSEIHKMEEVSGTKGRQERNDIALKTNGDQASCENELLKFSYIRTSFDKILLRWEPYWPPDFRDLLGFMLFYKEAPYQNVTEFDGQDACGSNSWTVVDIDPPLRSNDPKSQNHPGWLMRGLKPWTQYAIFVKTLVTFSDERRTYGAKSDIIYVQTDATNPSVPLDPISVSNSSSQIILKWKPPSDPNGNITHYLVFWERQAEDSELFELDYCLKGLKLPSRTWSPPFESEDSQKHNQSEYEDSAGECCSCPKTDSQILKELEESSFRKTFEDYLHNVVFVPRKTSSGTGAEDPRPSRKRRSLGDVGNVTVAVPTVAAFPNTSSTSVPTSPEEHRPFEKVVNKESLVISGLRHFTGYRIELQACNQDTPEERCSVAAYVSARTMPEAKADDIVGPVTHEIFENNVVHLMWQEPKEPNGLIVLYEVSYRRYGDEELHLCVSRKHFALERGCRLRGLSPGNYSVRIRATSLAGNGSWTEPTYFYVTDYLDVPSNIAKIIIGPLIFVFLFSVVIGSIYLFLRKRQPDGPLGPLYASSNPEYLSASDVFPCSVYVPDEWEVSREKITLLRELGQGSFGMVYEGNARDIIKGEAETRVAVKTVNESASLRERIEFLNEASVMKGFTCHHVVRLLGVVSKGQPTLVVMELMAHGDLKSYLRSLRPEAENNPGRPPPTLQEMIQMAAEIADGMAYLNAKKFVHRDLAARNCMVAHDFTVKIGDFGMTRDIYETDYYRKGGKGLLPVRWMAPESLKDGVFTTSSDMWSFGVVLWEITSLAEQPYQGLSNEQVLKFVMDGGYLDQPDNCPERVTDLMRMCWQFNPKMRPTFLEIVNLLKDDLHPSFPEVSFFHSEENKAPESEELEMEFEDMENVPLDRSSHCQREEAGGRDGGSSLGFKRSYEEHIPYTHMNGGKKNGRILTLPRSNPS
Method: as §1

CHEK1 = target: T2, CHEK1 (Homo sapiens, UniProt O14757); details: 10 µM, inhibitor
T2 sequence (O14757 1-476): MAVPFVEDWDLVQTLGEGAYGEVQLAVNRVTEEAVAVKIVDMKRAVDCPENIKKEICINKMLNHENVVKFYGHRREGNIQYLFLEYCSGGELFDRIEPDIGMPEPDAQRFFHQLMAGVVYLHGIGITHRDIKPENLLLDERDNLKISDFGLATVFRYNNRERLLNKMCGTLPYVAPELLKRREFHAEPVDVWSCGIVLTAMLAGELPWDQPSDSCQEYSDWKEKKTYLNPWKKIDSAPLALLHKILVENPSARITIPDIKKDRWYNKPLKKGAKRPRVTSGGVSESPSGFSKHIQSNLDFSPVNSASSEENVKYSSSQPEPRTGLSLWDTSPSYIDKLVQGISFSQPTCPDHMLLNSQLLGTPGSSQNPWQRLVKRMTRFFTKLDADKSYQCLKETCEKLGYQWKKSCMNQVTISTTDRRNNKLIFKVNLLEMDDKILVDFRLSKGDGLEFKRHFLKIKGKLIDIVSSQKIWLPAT
Method: as §1

PIK3CD = PIK3CD (Homo sapiens, UniProt O00329); details: 10 µM, inhibitor
Method: as §1

STK3 = target: T3, STK3 (Homo sapiens, UniProt Q13188); details: 10 µM, inhibitor
T3 sequence (Q13188 1-491): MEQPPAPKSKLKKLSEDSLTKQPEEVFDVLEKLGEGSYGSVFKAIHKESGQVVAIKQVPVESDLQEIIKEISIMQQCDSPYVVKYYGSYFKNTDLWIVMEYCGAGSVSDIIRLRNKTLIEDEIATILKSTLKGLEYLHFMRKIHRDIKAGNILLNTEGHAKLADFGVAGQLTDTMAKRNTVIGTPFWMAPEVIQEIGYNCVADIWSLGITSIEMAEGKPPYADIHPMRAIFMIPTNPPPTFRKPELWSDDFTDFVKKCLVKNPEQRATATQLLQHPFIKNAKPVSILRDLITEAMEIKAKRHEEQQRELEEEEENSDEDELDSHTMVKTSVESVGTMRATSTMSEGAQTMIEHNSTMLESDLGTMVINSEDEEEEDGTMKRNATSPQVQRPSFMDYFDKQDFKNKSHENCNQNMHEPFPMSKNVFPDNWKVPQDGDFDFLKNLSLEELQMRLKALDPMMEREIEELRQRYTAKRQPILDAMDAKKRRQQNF
Method: as §1

Sequence of GSK3B (P49841 whole entry): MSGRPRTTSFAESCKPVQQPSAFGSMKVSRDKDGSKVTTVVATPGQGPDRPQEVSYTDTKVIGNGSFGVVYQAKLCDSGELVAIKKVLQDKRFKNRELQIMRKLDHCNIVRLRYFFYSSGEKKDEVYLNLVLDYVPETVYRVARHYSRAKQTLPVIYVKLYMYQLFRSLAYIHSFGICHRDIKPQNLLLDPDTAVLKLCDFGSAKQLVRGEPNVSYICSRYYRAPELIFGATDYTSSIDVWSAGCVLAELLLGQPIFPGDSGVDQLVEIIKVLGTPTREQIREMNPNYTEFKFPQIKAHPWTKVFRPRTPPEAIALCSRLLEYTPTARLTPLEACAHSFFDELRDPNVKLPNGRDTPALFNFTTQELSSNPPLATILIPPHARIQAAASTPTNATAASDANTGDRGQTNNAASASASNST

## O=C(O)c1sc2cc(F)sc2c1Cl [PF-07208254, 3-chloro-5-fluorothieno[3,2-b]thiophene-2-carboxylic acid]
GSK3B
  ATP = 1 mM % Inhibition PF-07208254: 0.7%
  ATP = Km % Inhibition PF-07208254: 9.7%
AKT1
  ATP = 1 mM % Inhibition PF-07208254: -0.8%
  ATP = Km % Inhibition PF-07208254: 6.7%
MAPK1
  ATP = 1 mM % Inhibition PF-07208254: 2.8%
  ATP = Km % Inhibition PF-07208254: 9.4%
NTRK1
  ATP = 1 mM % Inhibition PF-07208254: 5.8%
  ATP = Km % Inhibition PF-07208254: 5.6%
PI4KA
  ATP = 10 uM % Inhibition PF-07208254: 8.2%
AKT2
  ATP = Km % Inhibition PF-07208254: 0.2%
PIM2
  ATP = 1 mM % Inhibition PF-07208254: -5.2%
  ATP = Km % Inhibition PF-07208254: 22.3%
MAPK14
  ATP = 1 mM % Inhibition PF-07208254: 4.0%
  ATP = Km % Inhibition PF-07208254: 3.0%
FGFR1
  ATP = 1 mM % Inhibition PF-07208254: -0.5%
  ATP = Km % Inhibition PF-07208254: -0.5%
Rsk1
  ATP = Km % Inhibition PF-07208254: 3.3%
INSR
  ATP = 1 mM % Inhibition PF-07208254: 0.0%
  ATP = Km % Inhibition PF-07208254: 3.1%
CHEK1
  ATP = 1 mM % Inhibition PF-07208254: 4.3%
  ATP = Km % Inhibition PF-07208254: 4.6%
PIK3CD
  ATP = Km % Inhibition PF-07208254: 6.4%
STK3
  ATP = 1 mM % Inhibition PF-07208254: -2.3%
  ATP = Km % Inhibition PF-07208254: 5.5%

## CCC1(COc2ccc(-c3csc(-c4ccccc4C(=O)O)n3)cn2)CC1 [PF-07247685, 2-(4-{6-[(1-ethylcyclopropyl)methoxy]pyridin-3-yl}-1,3-thiazol-2-yl)benzoic acid]
GSK3B
  ATP = 1 mM % Inhibition PF-07247685: 3.7%
  ATP = Km % Inhibition PF-07247685: 11.0%
AKT1
  ATP = 1 mM % Inhibition PF-07247685: -0.8%
  ATP = Km % Inhibition PF-07247685: 2.4%
MAPK1
  ATP = 1 mM % Inhibition PF-07247685: 2.4%
  ATP = Km % Inhibition PF-07247685: 7.0%
NTRK1
  ATP = 1 mM % Inhibition PF-07247685: 10.0%
  ATP = Km % Inhibition PF-07247685: 14.5%
PI4KA
  ATP = 10 uM % Inhibition PF-07247685: -3.1%
AKT2
  ATP = Km % Inhibition PF-07247685: 5.5%
PIM2
  ATP = 1 mM % Inhibition PF-07247685: 0.9%
  ATP = Km % Inhibition PF-07247685: 0.1%
MAPK14
  ATP = 1 mM % Inhibition PF-07247685: 7.1%
  ATP = Km % Inhibition PF-07247685: 3.5%
FGFR1
  ATP = 1 mM % Inhibition PF-07247685: 2.1%
  ATP = Km % Inhibition PF-07247685: 8.8%
Rsk1
  ATP = Km % Inhibition PF-07247685: 2.4%
INSR
  ATP = 1 mM % Inhibition PF-07247685: -0.4%
  ATP = Km % Inhibition PF-07247685: 3.4%
CHEK1
  ATP = 1 mM % Inhibition PF-07247685: 4.5%
  ATP = Km % Inhibition PF-07247685: -3.1%
PIK3CD
  ATP = Km % Inhibition PF-07247685: -7.0%
STK3
  ATP = 1 mM % Inhibition PF-07247685: -7.6%
  ATP = Km % Inhibition PF-07247685: -1.8%
